From patent publication US11236059B2, “Targeted cytotoxic ratjadone derivatives and conjugates thereof” (HELMHOLTZ-ZENTRUM FUER INFEKTIONSFORSCHUNG GMBH, priority 2017, dated 2022)
pIC50: −log10 of the molar value. Where two headings read alike, the source gives them in different places.

Key:
Assay type in all cases: cell-based
[1] = tested on: A549 (DSMZ ACC 107) cells; assay: cells; details: growth inhibition, 5 days of incubation, MTT assay; read-out: IC50 [nM] A-549 (Gonadoliberin-Ratjadone Conjugates)
Procedure: (§1) 60 μL of serial dilutions of the test compound were given to 120 μL of suspended cells (50.000/mL) in wells of 96-well plates. After 5 days of incubation growth inhibition (IC50) was determined using an MTT assay.^[64]

[2] = target: T1, CRM1 (Homo sapiens, UniProt O14980); assay: Monitoring export inhibitory activity (translocation biosensor, HeLaRevBio cells); details: for IC50: HeLa cells stably expressing translocation biosensor, 1h of incubation, read-out: IC50 [nM] CRM1 (nuclear export inhibition)
T1 construct: HeLa cells stably expressing a fluorescent translocation biosensor (HeLaRevBio); endogenous in cells; host or cells: HeLa (HeLaRevBio in A7; HeLa in A8)
T1 sequence (O14980 whole entry): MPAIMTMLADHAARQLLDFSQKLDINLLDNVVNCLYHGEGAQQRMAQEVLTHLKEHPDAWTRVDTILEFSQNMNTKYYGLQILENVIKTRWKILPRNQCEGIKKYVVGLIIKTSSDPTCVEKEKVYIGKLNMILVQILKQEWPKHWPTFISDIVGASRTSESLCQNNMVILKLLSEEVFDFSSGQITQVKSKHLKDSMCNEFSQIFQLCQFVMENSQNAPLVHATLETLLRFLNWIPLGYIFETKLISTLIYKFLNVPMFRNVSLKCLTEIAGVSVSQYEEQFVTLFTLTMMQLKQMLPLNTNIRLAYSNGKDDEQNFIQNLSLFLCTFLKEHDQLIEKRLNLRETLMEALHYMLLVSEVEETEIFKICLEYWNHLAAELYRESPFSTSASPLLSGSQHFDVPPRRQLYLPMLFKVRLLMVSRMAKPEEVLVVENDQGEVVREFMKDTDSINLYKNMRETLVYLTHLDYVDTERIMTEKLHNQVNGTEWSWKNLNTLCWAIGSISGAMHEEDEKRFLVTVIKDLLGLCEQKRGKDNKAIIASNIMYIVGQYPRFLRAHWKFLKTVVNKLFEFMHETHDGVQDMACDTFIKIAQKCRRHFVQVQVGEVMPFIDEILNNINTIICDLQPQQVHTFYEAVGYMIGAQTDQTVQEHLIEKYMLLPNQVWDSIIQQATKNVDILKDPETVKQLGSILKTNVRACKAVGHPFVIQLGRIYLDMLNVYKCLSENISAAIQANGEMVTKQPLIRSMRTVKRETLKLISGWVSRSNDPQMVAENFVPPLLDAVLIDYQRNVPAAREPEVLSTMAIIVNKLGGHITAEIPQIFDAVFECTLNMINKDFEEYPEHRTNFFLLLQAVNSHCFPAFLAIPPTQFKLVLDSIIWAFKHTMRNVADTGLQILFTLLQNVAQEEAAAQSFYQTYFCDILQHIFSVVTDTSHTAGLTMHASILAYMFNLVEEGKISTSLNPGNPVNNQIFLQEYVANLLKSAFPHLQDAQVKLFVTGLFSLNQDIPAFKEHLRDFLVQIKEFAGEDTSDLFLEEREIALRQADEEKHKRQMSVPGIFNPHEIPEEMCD
Procedure: Export inhibitory ability of compounds was evaluated with the translocation biosensor system. This cellular assay depends on a recombinantly expressed fusion protein consisting of a nuclear localization signal (SV40-NLS), glutathione S-transferase (GST), green fluorescent protein (GFP) and a nuclear export signal (HIV1-RevNES). Due to the two transport signals (NLS/NES), the biosensor is permanently shuttling between nucleus and cytoplasm but resides prominently in the cytoplasm due to a comparatively stronger NES. Export inhibiting compound induce a nuclear accumulation of the GFP-signal^[65,66] Cell lines were maintained as recommended by the American Type Culture Collection in DMEM containing 5% glutamine (Thermo Fisher Scientific, Waltham, USA) supplemented with 10% FBS (Thermo Fisher Scientific, Waltham, USA). For quantifying the nuclear export inhibitory effect, HeLa cells stably expressing a fluorescent translocation biosensor (HeLaRevBio)^[67] were seeded into black 96 well μclear plates (Greiner, Germany). They next day compounds were added covering an appropriate concentration range. After 1h of incubation, cells were fixed in 4% PFA for 10 min and permeabilized with 0.1% Triton X 100 in PBS for 5 min. After washing with PBS nuclei were labeled with Hoechst H33342 (30 min 10 μg/ml). The intracellular distribution of the biosensor-dependent GFP signal was quantitatively evaluated with the high content imaging system ImageXpress MicroXLS (Molecular Devices, Sunnyvale, USA). By using the translocation enhanced application module (Molecular Devices, Sunnyvale, USA) the GFP-intensity was quantified in the cytoplasm and nuclear region. As final readout the difference of Mean Inner and Mean Outer Intensity was calculated. IC50s of nuclear export inhibition were calculated using Sigma Plot with four parameter logistics curve regression (Systat Software GmbH, Erkrath, Germany). […] The following day compounds were added at 125 nM final concentration.

[3] = tested on: KB 3.1 (DSMZ ACC 158) cells; assay: Cell proliferation assay under folate free conditions; details: RPMI-medium without folic acid + 10% dialyzed fetal calf serum; MTT assay after 1, 2 and 5 days (day of the value not given); read-out: IC50 [nM] KB 3.1 (Folate-Ratjadone Conjugates)
Procedure: KB 3.1 (DSMZ ACC 158) cells were cultivated at 37° C. and 10% C002 in RMPI-medium without folic acid (Gibco) with 10% fetal calf serum (Gibco). 120 μL of suspended cells (100.000/mL) were seeded in wells of 96-well plates and after 24 h at 37° C. and 10% CO2 the medium was removed, the cells were washed with PBS and RPMI-medium without folic acid (Gibco)+10% dialyzed fetal calf serum (Sigma) were added to the cells, before after additional 24 h at 37° C. and 10% C002 60 μL of serial dilutions of the test compound were given to cells. After 1, 2 and 5 days of incubation growth inhibition (IC50) was determined using an MTT assay.^[64]

[4] = tested on: MCF-7 (DSMZ ACC 115) cells; assay: cells
Procedure: as §1

[5] = tested on: SKOV-3 (DSMZ ATCC HTB 77) cells; assay: cells
Procedure: as §1

Structure (SMILES)	IC50 [1] [nM]	IC50 [3] [nM]	other results
C/C=C/[C@@H]1O[C@H]([C@@H](/C=C/C=C(\C)C[C@@H](C)/C=C(C)\C=C\[C@H]2CC=CC(=O)O2)NC(=O)OCc2ccc(NC(=O)[C@H](CCCNC(N)=O)NC(=O)[C@@H](NC(=O)OC[C@@H]3[C@@H]4CCc5nnn(CCC[C@@H](NC(=O)[C@H](Cc6ccc(O)cc6)NC(=O)[C@H](CO)NC(=O)[C@H](Cc6c[nH]c7ccccc67)NC(=O)[C@H](Cc6c[nH]cn6)NC(=O)[C@@H]6CCC(=O)N6)C(=O)N[C@@H](CC(C)C)C(=O)N[C@@H](CCCNC(=N)N)C(=O)N6CCC[C@H]6C(=O)NNC(N)=O)c5CC[C@@H]43)C(C)C)cc2)C[C@@H](O)[C@@H]1C	12.8	–	–
C/C=C/[C@@H]1O[C@H]([C@@H](/C=C/C=C(\C)C[C@@H](C)/C=C(C)\C=C\[C@H]2CC=CC(=O)O2)NC(=O)OCCc2cn(CCC[C@H](NC(=O)[C@H](Cc3ccc(O)cc3)NC(=O)[C@H](CO)NC(=O)[C@H](Cc3c[nH]c4ccccc34)NC(=O)[C@H](Cc3c[nH]cn3)NC(=O)[C@@H]3CCC(=O)N3)C(=O)N[C@@H](CC(C)C)C(=O)N[C@@H](CCCNC(=N)N)C(=O)N3CCC[C@H]3C(=O)NCC(N)=O)nn2)C[C@@H](O)[C@@H]1C [L-Orn-LHRH-16R-Aminoratjadone]	1600	–	pIC50 [2]: 5.97
C/C=C/[C@@H]1O[C@H]([C@@H](/C=C/C=C(\C)C[C@@H](C)/C=C(C)\C=C\[C@H]2CC=CC(=O)O2)NC(=O)CCSSC[C@H](NC(=O)CC[C@H](NC(=O)c2ccc(NCc3cnc4nc(N)nc(O)c4n3)cc2)C(=O)O)C(=O)O)C[C@@H](O)[C@@H]1C [FA-SS-16R-Aminoratjadone, N^2-(4-(((2-amino-4-hydroxypteridin-6-yl)methyl)amino)benzoyl)-N^5-((R)-1-carboxy-2-((3-(((1R,2E,4E,7R,8Z,10E)-1-((2S,4R,5S,6S)-4-hydroxy-5-methyl-6-((E)-prop-1-en-1-yl)tetrahydro-2H-pyran-2-yl)-5,7,9-trimethyl-11-((R)-6-oxo-3,6-dihydro-2H-pyran-2-yl)undeca-2,4,8,10-tetraen-1-yl)amino)-3-oxopropyl)disulfaneyl)ethyl)-L-glutamine]	–	295	–
C/C=C/[C@@H]1O[C@H]([C@@H](/C=C/C=C(\C)C[C@@H](C)/C=C(C)\C=C\[C@H]2CC=CC(=O)O2)NC(=O)OCCc2cn(CCC[C@H](NC(=O)[C@@H](CC(=O)O)NC(=O)[C@@H](CC(=O)O)NC(=O)[C@@H](CC(=O)O)NC(=O)[C@@H](CC(=O)O)NC(=O)[C@@H](CC(=O)O)NC(=O)CC[C@H](NC(=O)c3ccc(NCc4cnc5nc(N)nc(O)c5n4)cc3)C(=O)O)C(=O)O)nn2)C[C@@H](O)[C@@H]1C [FA-5-16R-Aminoratjadone]	–	50.3	–
C/C=C/[C@@H]1O[C@H]([C@@H](/C=C/C=C(\C)C[C@@H](C)/C=C(C)\C=C\[C@H]2CC=CC(=O)O2)NC(=O)OCCc2cn(CCC[C@H](NC(=O)CC[C@H](NC(=O)CC[C@H](NC(=O)c3ccc(NCc4cnc5nc(N)nc(O)c5n4)cc3)C(=O)O)C(=O)O)C(=O)O)nn2)C[C@@H](O)[C@@H]1C [FA-7-16R-Aminoratjadone, N^2-(4-(((2-amino-4-hydroxypteridin-6-yl)methyl)amino)benzoyl)-N^5—((S)-1-carboxy-4-(((S)-1-carboxy-4-(4-(2-((((1R,2E,4E,7R,8Z,10E)-1-((2S,4R,5S,6S)-4-hydroxy-5-methyl-6-((E)-prop-1-en-1-yl)tetrahydro-2H-pyran-2-yl)-5,7,9-trimethyl-11-((R)-6-oxo-3,6-dihydro-2H-pyran-2-yl)undeca-2,4,8,10-tetraen-1-yl)carbamoyl)oxy)ethyl)-1H-1,2,3-triazol-1-yl)butyl)amino)-4-oxobutyl)-L-glutamine]	–	190	–
C/C=C/[C@@H]1O[C@H]([C@@H](/C=C/C=C(\C)C[C@@H](C)/C=C(C)\C=C\[C@H]2CC=CC(=O)O2)NC(=O)OCc2ccc(NC(=O)[C@H](CCCNC(N)=O)NC(=O)[C@@H](NC(=O)OC[C@@H]3[C@@H]4CCc5nnn(CCC[C@H](NC(=O)CC[C@H](NC(=O)CC[C@H](NC(=O)c6ccc(NCc7cnc8nc(N)nc(O)c8n7)cc6)C(=O)O)C(=O)O)C(=O)O)c5CC[C@@H]43)C(C)C)cc2)C[C@@H](O)[C@@H]1C [FA-7-Val-Cit-PABA-16R-Aminoratjadone]	–	34.3	–
C/C=C/[C@@H]1O[C@H]([C@H](O)/C=C/C=C(\C)C[C@@H](C)/C=C(C)\C=C\[C@H]2CC=CC(=O)O2)C[C@@H](O)[C@@H]1C [Ratjadone A 1, (R)-6-((1E,3Z,5R,7E,9E,11R)-11-hydroxy-11-((2S,4R,5S,6S)-4-hydroxy-5-methyl-6-((E)-prop-1-en-1-yl)tetrahydro-2H-pyran-2-yl)-3,5,7-trimethylundeca-1,3,7,9-tetraen-1-yl)-5,6-dihydro-2H-pyran-2-one, reference compound]	–	–	IC50 [2]: 1.2 nM
C/C=C/[C@@H]1O[C@H]([C@@H](/C=C/C=C(\C)C[C@@H](C)/C=C(C)\C=C\[C@H]2CC=CC(=O)O2)NC(=O)OCc2ccc(NC(=O)[C@H](CCCNC(N)=O)NC(=O)[C@@H](NC(=O)OC[C@@H]3[C@@H]4CCc5nnn(CCC[C@@H](NC(=O)[C@H](Cc6ccc(O)cc6)NC(=O)[C@H](CO)NC(=O)[C@H](Cc6c[nH]c7ccccc67)NC(=O)[C@H](Cc6c[nH]cn6)NC(=O)[C@@H]6CCC(=O)N6)C(=O)N[C@@H](CC(C)C)C(=O)N[C@@H](CCCNC(=N)N)C(=O)N6CCC[C@H]6C(=O)NCC(N)=O)c5CC[C@@H]43)C(C)C)cc2)C[C@@H](O)[C@@H]1C	23	–	–
C/C=C/[C@@H]1O[C@H]([C@H](N)/C=C/C=C(\C)C[C@@H](C)/C=C(C)\C=C\[C@H]2CC=CC(=O)O2)C[C@@H](O)[C@@H]1C [16R-Amino-Ratjadone 11, (R)-6-((1E,3Z,5R,7E,9E,11R)-11-amino-11-((2S,4R,5S,6S)-4-hydroxy-5-methyl-6-((E)-prop-1-en-1-yl)tetrahydro-2H-pyran-2-yl)-3,5,7-trimethylundeca-1,3,7,9-tetra-en-1-yl)-5,6-dihydro-2H-pyran-2-one]	–	–	IC50 ([4]; Homo sapiens, MCF7, 120 h, read-out: IC50 [nM] MCF-7, growth inhibition, 5 days of incubation, MTT assay): 0.26 nM; IC50 ([4]; read-out: IC50 [nM] MCF-7, growth inhibition, 5 days of incubation, MTT assay): 0.36 nM; IC50 ([5]; Homo sapiens, SK-OV-3, 120 h, read-out: IC50 [nM] SK-OV-3, growth inhibition, 5 days of incubation, MTT assay): 0.61 nM; IC50 ([5]; read-out: IC50 [nM] SK-OV-3, growth inhibition, 5 days of incubation, MTT assay): 0.81 nM; IC50 [2]: 2.7 nM
C/C=C/[C@@H]1O[C@H]([C@@H](/C=C/C=C(\C)C[C@@H](C)/C=C(C)\C=C\[C@H]2CC=CC(=O)O2)NC(=O)OCc2ccc(NC(=O)[C@H](CCCNC(N)=O)NC(=O)[C@@H](NC(=O)OCCc3cn(CCC[C@H](NC(=O)[C@H](Cc4ccc(O)cc4)NC(=O)[C@H](CO)NC(=O)[C@H](Cc4c[nH]c5ccccc45)NC(=O)[C@H](Cc4c[nH]cn4)NC(=O)[C@@H]4CCC(=O)N4)C(=O)N[C@@H](CC(C)C)C(=O)N[C@@H](CCCNC(=N)N)C(=O)N4CCC[C@H]4C(=O)NCC(N)=O)nn3)C(C)C)cc2)C[C@@H](O)[C@@H]1C	1200	–	–
C/C=C/[C@@H]1O[C@H]([C@@H](N)/C=C/C=C(\C)C[C@@H](C)/C=C(C)\C=C\[C@H]2CC=CC(=O)O2)C[C@@H](O)[C@@H]1C [16S-Amino-Ratjadone 12, (R)-6-((1E,3Z,5R,7E,9E,11 S)-11-amino-11-((2S,4R,5S,6S)-4-hydroxy-5-methyl-6-((E)-prop-1-en-1-yl)tetrahydro-2H-pyran-2-yl)-3,5,7-trimethylun-deca-1,3,7,9-tetraen-1-yl)-5,6-dihydro-2H-pyran-2-one]	–	–	IC50 [2]: 2.8 nM
